Measurements reported in patent US20250099466A1 (BRISTOL-MYERS SQUIBB COMPANY, priority 2021, published 2025).
“Also recorded” adds a separate entry of the source.

Assays:
[1] = system: subjects undergoing elective total knee replacement surgery; test: Phase 2 study after elective total knee replacement: bleeding events (safety); type: in vivo, human; conditions: safety set, on-treatment
Description: The principal safety outcome was any bleeding, which was defined as the composite of major, clinically relevant nonmajor, and minimal bleeding. Secondary safety outcomes were: (a) major bleeding, (b) clinically relevant nonmajor bleeding, (c) clinically relevant bleeding, defined as the composite of major and clinically relevant nonmajor bleeding, and (d) minimal bleeding. Bleeding was classified as major if it was overt and associated with a decrease in hemoglobin of 2 g/dL or more or necessitated transfusion of 2 or more units of blood with a temporal association within 24 to 48 hours of the bleed; or if it occurred in a critical area or organ or contributed to death. […] Overt bleeding not meeting the criteria for major bleeding, but that necessitated medical examination or intervention or had clinical consequences, was classified as clinically relevant nonmajor bleeding. Bleeding not meeting the criteria for major or clinically relevant nonmajor bleeding was classified as minimal bleeding (Schulman et al., Definition of major bleeding in clinical investigations of antihemostatic medicinal products in surgical patients. J Thromb Haemost 2010; 8:202-4).
Analysis of safety outcomes was performed in the safety population, which included all randomized patients who received at least one dose of study medication; the time for analysis included the on-treatment period plus 2 days. For each bleeding outcome, the rate in each milvexian group was compared with that in the enoxaparin group with the same methods used for evaluation of the secondary efficacy outcomes. The Kaplan-Meier method was used to assess the time to the first occurrence of any bleeding with milvexian or enoxaparin.
The key secondary objective of the study was to assess the dose-response trend of milvexian for the occurrence of Any Bleeding events during the treatment period. Any Bleeding was defined as the composite of major bleeding according to the International Society on Thrombosis and Haemostasis (ISTH) criteria modified for the surgical setting, clinically relevant nonmajor bleeding events or minimal bleeding events as assessed by the clinical events committee (CEC).

aPTT = aPTT prolongation in healthy volunteers; type: in vivo, human; conditions: 50-mg once daily dose, for about 24 hours
Half-life of milvexian = conditions: human, in vivo
aPTT, TT, and PT = test: Ex vivo aPTT, TT and PT in ECAT rabbits; set-up: species or system rabbit
Protocol: (§1) Integrated blood flow, thrombus weight, aPTT (activated partial thromboplastin time), TT (thrombin time), and PT (prothrombin time) were also measured.

[2] = system: electrically induced carotid artery thrombus (ECAT) in rabbits; test: Treatment rabbit ECAT model (dosing 15 minutes after vessel injury); type: in vivo; conditions: for carotid blood flow at 90 minutes (% of control carotid blood flow): n=6; for reduction in thrombus weight: treatment ECAT
Protocol: The rabbit ECAT model as described by Wong et al., Nonpeptide factor Xa inhibitors: II.
Male New Zealand white rabbits were anesthetized with ketamine (50 mg/kg+50 mg/kg/h intramuscularly) and xylazine (10 mg/kg+10 mg/kg/h intramuscularly). Thrombosis was induced by electrical stimulation of the control carotid artery for 3 minutes at 4 mA using an external stainless-steel bipolar electrode. Carotid blood flow was measured with an electromagnetic flow probe continuously over a 90-minute period to monitor thrombosis induced occlusion. Integrated carotid blood flow was measured by the area under the flowtime curve (see Wong et al.). In addition, thrombus from the injured artery was removed, blotted twice on a weighing paper to remove residual fluid, and weighed.
To achieve a stable plasma level with minimum experimental variability, compounds were administered by IV infusion. […] The IV infusion was continued throughout the experiment for both models.
as §1

[3] = milvexian 50 mg BID, listed as Milvexian
[4] = milvexian 100 mg BID, listed as Milvexian
[5] = milvexian 200 mg once daily, listed as Milvexian
[6] = milvexian all regimens combined
[7] = milvexian combined BID regimens

SMILES: C[C@@H]1CCC[C@H](n2cnc(-c3cc(Cl)ccc3-n3cc(Cl)nn3)cc2=O)c2cc(ccn2)-c2c(cnn2C(F)F)NC1=O [milvexian, (5R,9S)-9-(4-(5-chloro-2-(4-chloro-1H-1,2,3-triazol-1-yl)phenyl)-6-oxopyrimidin-1(6H)-yl)-21-(difluoromethyl)-5-methyl-21H-3-aza-1(4,2)-pyridina-2(5,4)-pyrazolacyclononaphan-4-one]
- Any Bleeding % ([1]; milvexian 25 mg BID): 1.4%
- Any Bleeding RR vs Enox ([1]; milvexian 25 mg BID): 0.33
- Any Bleeding n ([1]; milvexian 25 mg BID): 2 n
- Major+CRNM bleeding % ([1]; milvexian 25 mg BID): 0%
- Major+CRNM bleeding n ([1]; milvexian 25 mg BID): 0 n
- Minimal Bleeding % ([1]; milvexian 25 mg BID): (1.4%)
- Minimal Bleeding RR vs Enox ([1]; milvexian 25 mg BID): 0.50
- Minimal Bleeding n ([1]; milvexian 25 mg BID): 2 n
- Any Bleeding % ([1]; milvexian 25 mg BID, listed as Milvexian): (1.4%)
- Any Bleeding % ([1]; milvexian 25 mg once daily): 0%
- Any Bleeding n ([1]; milvexian 25 mg once daily): 0 n
- Major+CRNM bleeding n ([1]; milvexian 25 mg once daily): 0 n
- Minimal Bleeding n ([1]; milvexian 25 mg once daily): 0 n
- Any Bleeding % ([1]; milvexian 50 mg BID): 4.7%
- Any Bleeding RR vs Enox ([1]; milvexian 50 mg BID): 1.15
- Any Bleeding n ([1]; milvexian 50 mg BID): 7 n
- Major+CRNM bleeding % ([1]; milvexian 50 mg BID): 1.4%
- Major+CRNM bleeding RR vs Enox ([1]; milvexian 50 mg BID): 0.79
- Major+CRNM bleeding n ([1]; milvexian 50 mg BID): 2 n
- Minimal Bleeding % ([1]; milvexian 50 mg BID): (3.4%)
- Minimal Bleeding RR vs Enox ([1]; milvexian 50 mg BID): 1.23
- Minimal Bleeding n ([1]; milvexian 50 mg BID): 5 n
- Any Bleeding % [1, 3]: (4.7%)
- Major+CRNM bleeding % [1, 3]: (1.4%)
- Any Bleeding % ([1]; milvexian 50 mg once daily): (5.3%)
- Any Bleeding RR vs Enox ([1]; milvexian 50 mg once daily): 1.17
- Any Bleeding n ([1]; milvexian 50 mg once daily): 8 n
- Major+CRNM bleeding % ([1]; milvexian 50 mg once daily): 1.3%
- Major+CRNM bleeding RR vs Enox ([1]; milvexian 50 mg once daily): 0.68
- Major+CRNM bleeding n ([1]; milvexian 50 mg once daily): 2 n
- Minimal Bleeding % ([1]; milvexian 50 mg once daily): (4.0%)
- Minimal Bleeding RR vs Enox ([1]; milvexian 50 mg once daily): 1.35
- Minimal Bleeding n ([1]; milvexian 50 mg once daily): 6 n
- Major+CRNM bleeding % ([1]; milvexian 50 mg once daily, listed as Milvexian): (1.3%)
- Any Bleeding % ([1]; milvexian 100 mg BID): 4.7%
- Any Bleeding RR vs Enox ([1]; milvexian 100 mg BID): 1.14
- Any Bleeding n ([1]; milvexian 100 mg BID): 7 n
- Major+CRNM bleeding % ([1]; milvexian 100 mg BID): 0.7%
- Major+CRNM bleeding RR vs Enox ([1]; milvexian 100 mg BID): 0.39
- Major+CRNM bleeding n ([1]; milvexian 100 mg BID): 1 n
- Minimal Bleeding % ([1]; milvexian 100 mg BID): (4.7%)
- Minimal Bleeding RR vs Enox ([1]; milvexian 100 mg BID): 1.71
- Minimal Bleeding n ([1]; milvexian 100 mg BID): 7 n
- Any Bleeding % [1, 4]: (4.7%)
- Major+CRNM bleeding % [1, 4]: (0.7%)
- Any Bleeding % ([1]; milvexian 200 mg BID): (3.4%)
- Any Bleeding RR vs Enox ([1]; milvexian 200 mg BID): 0.81
- Any Bleeding n ([1]; milvexian 200 mg BID): 5 n
- Major+CRNM bleeding % ([1]; milvexian 200 mg BID): 0.7%
- Major+CRNM bleeding RR vs Enox ([1]; milvexian 200 mg BID): 0.39
- Major+CRNM bleeding n ([1]; milvexian 200 mg BID): 1 n
- Minimal Bleeding % ([1]; milvexian 200 mg BID): (2.7%)
- Minimal Bleeding RR vs Enox ([1]; milvexian 200 mg BID): 0.96
- Minimal Bleeding n ([1]; milvexian 200 mg BID): 4 n
- Major+CRNM bleeding % ([1]; milvexian 200 mg BID, listed as Milvexian): (0.7%)
- Any Bleeding % ([1]; milvexian 200 mg once daily): 6.1%
- Any Bleeding RR vs Enox ([1]; milvexian 200 mg once daily): 1.51
- Any Bleeding n ([1]; milvexian 200 mg once daily): 9 n
- Major+CRNM bleeding % ([1]; milvexian 200 mg once daily): 0.7%
- Major+CRNM bleeding RR vs Enox ([1]; milvexian 200 mg once daily): 0.40
- Major+CRNM bleeding n ([1]; milvexian 200 mg once daily): 1 n
- Minimal Bleeding % ([1]; milvexian 200 mg once daily): (5.4%)
- Minimal Bleeding RR vs Enox ([1]; milvexian 200 mg once daily): 2.01
- Minimal Bleeding n ([1]; milvexian 200 mg once daily): 8 n
- Any Bleeding % [1, 5]: (6.1%)
- Major+CRNM bleeding % [1, 5]: (0.7%)
- Any Bleeding % [1, 6]: 4.1%
- Any Bleeding n [1, 6]: 38 n
- Any bleeding RR (CI) vs enoxaparin [1, 6]: 0.99 (0.53-1.85)
- Clinically relevant non-major Bleeding % [1, 6]: 0.8%
- Clinically relevant non-major Bleeding RR (CI) vs enoxaparin [1, 6]: 0.55 (0.16-1.85)
- Clinically relevant non-major Bleeding n [1, 6]: 7 n
- Major Bleeding n [1, 6]: no major bleeds; also recorded: No CEC adjudicated major bleeding
- Major bleeding or CRNM Bleeding RR (CI) vs enoxaparin [1, 6]: 0.44 (0.14-1.35)
- Major+CRNM bleeding % [1, 6]: 0.8%
- Major+CRNM bleeding n [1, 6]: 7 n
- Minimal Bleeding % [1, 6]: 3.5%
- Minimal Bleeding RR (CI) vs enoxaparin [1, 6]: 1.26 (0.59-2.67)
- Minimal Bleeding n [1, 6]: 32 n
- Major Bleeding n ([1]; milvexian all regimens combined, listed as Milvexian): 0 n
- Any Bleeding % [1, 7]: 3.5%
- Any Bleeding n [1, 7]: 21 n
- Any bleeding RR (CI) vs enoxaparin [1, 7]: 0.86 (0.43-1.71)
- Clinically relevant non-major Bleeding % [1, 7]: 0.7%
- Clinically relevant non-major Bleeding RR (CI) vs enoxaparin [1, 7]: 0.49 (0.12-1.96)
- Clinically relevant non-major Bleeding n [1, 7]: 4 n
- Major Bleeding n [1, 7]: 0 n
- Major bleeding or CRNM Bleeding RR (CI) vs enoxaparin [1, 7]: 0.39 (0.11-1.44)
- Major+CRNM bleeding % [1, 7]: 0.7%
- Major+CRNM bleeding n [1, 7]: 4 n
- Minimal Bleeding % [1, 7]: 3.0%
- Minimal Bleeding RR (CI) vs enoxaparin [1, 7]: 1.10 (0.49-2.49)
- Minimal Bleeding n [1, 7]: 18 n
- prolongation of aPTT (aPTT): 1.5 fold
- half-life (Half-life of milvexian): ~11 h
- ex vivo PT (aPTT, TT, and PT; prevention ECAT rabbits): did not alter TT and PT significantly
- ex vivo TT (aPTT, TT, and PT; prevention ECAT rabbits): did not alter TT and PT significantly
- ex vivo aPTT (aPTT, TT, and PT; prevention ECAT rabbits): elevated aPTT significantly at the highest 2 doses
- prolongation of aPTT needed to achieve 50% thrombus weight reduction (aPTT, TT, and PT; rabbit ECAT): 1.6 fold
- carotid blood flow at 90 minutes (% of control carotid blood flow) ([2]; 0.25+0.17 mg/kg+mg/kg/h IV at 15 minutes after initiation of thrombosis): 39±10%
- reduction in thrombus weight ([2]; 0.25+0.17 mg/kg+mg/kg/h IV): 25±7%
- carotid blood flow at 90 minutes (% of control carotid blood flow) ([2]; 1+0.67 mg/kg+mg/kg/h IV at 15 minutes after initiation of thrombosis): 66±2%
- reduction in thrombus weight ([2]; 1+0.67 mg/kg+mg/kg/h IV): 61±6%
